Among the data in BindingDB's records for patent US20240109930 (Idorsia Pharmaceuticals, 2024) are IC50 values, retold here.

SMILES strings stand for the structures.

The target of one assay is Galectin-1 (Homo sapiens, UniProt P09382). Briefly: Inhibitory Activity Assay. The method, then: (§1) Briefly, compounds are serially diluted in DMSO (working dilutions). ASF-coated 384well plates are supplemented with 22.8 μL/well of biotinylated hGal-3 or hGal-1 in assay buffer (i.e. 300-1000 ng/mL biotinylated hGal-3 or hGal-1) to which 1.2 μL of compound working dilutions are added and mixed. Plates are incubated for 3 hours at 4° C., then washed with cold assay buffer (3×50 uL), incubated for 1 hour with 25 μL/well of a streptavidin-peroxidase solution (diluted in assay buffer to 80 ng/mL) at 4° C., followed by further washing steps with assay buffer (3×50 uL). Finally, 25 μL/well of ABTS substrate is added.
Galectin-1, sequence (P09382 whole entry): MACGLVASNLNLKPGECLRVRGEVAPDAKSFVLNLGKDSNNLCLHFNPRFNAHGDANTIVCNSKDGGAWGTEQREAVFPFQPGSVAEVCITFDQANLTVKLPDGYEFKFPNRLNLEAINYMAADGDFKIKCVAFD

The next assay concerns the target Galectin-3 (Homo sapiens, UniProt P17931). Put plainly: Inhibitory Activity Assay. The method, then:
as §1

Galectin-3, sequence (P17931 whole entry): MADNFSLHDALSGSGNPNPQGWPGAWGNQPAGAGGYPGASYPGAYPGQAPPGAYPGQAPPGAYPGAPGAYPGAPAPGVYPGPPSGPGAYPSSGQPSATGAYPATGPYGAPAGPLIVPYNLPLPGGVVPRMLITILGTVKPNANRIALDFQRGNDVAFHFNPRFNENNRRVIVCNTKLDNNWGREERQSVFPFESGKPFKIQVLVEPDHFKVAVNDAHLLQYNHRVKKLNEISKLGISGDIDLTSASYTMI

The term IC50 denotes the concentration at which inhibition is half-maximal. Take `COC1=C(n2cc(-c3ccc(C#N)c(F)c3F)nn2)C(O)=C(CO)O[C@@H]1C[C@H]1CN(C2(C(F)F)CCC2)NN1` [US20240109930, Example 5.1.43.]: the figures for the IC50 against Galectin-1 and against Galectin-3 were 1320 nM and 30 nM, respectively.

In the case of `CO[C@@H]1[C@@H](n2cc(-c3ccc(Cl)c(F)c3F)nn2)[C@@H](O)[C@@H](CO)O[C@@H]1Cn1cc([C@H]2C[C@@H](NC(=O)OC(C)(C)C)C2)nn1` [US20240109930, Example 2.2.86.], the IC50 on Galectin-1 came out at 2570 nM; against Galectin-3 it was 60 nM.

Take `CCC1(c2cn(C[C@H]3O[C@H](CO)[C@H](O)[C@H](n4cc(-c5ccc(Cl)c(F)c5F)nn4)[C@H]3OC)nn2)COC1` [US20240109930, Example 2.2.38.]: the figures for the IC50 against Galectin-1 and against Galectin-3 were 1400 nM and 30 nM, respectively.

For the molecule `CO[C@@H]1[C@@H](n2cc(-c3ccc(Cl)c(F)c3F)nn2)[C@@H](O)[C@@H](CO)O[C@@H]1Cc1cn(C2COCCC2(F)F)nn1` (some centres undefined) [US20240109930, Example 2.1.73.A], on Galectin-3, the IC50 is 30 nM.

In the case of `CO[C@@H]1[C@@H](n2cc(-c3ccc(Cl)c(F)c3F)nn2)[C@@H](O)[C@@H](CO)O[C@@H]1Cc1cn([C@@H]2CC[C@H]2F)nn1` [US20240109930, Example 2.1.88.C], inhibition at Galectin-3 was half-maximal at 50 nM (IC50).

Turning to `COC(=O)C(C)(C)n1cc(C[C@H]2OC(CO)=C(O)C(N3C[C@H](c4ccc(Cl)c(F)c4F)NN3)=C2OC)nn1` [US20240109930, Example 2.1.10.], the values for the IC50 on Galectin-1 and on Galectin-3 were 2260 nM and 60 nM, respectively.

With `CO[C@@H]1[C@@H](n2cc(-c3ccc(Cl)c(F)c3F)nn2)[C@@H](O)[C@@H](CO)O[C@@H]1Cn1cc(C2(CF)CC2)nn1` [US20240109930, Example 2.2.46.], the IC50 against Galectin-1 was determined as 2300 nM; on Galectin-3 it was 60 nM.

Regarding `COC(=O)C(C)(C)n1cc(C[C@H]2OC(CO)=C(O)C(N3C[C@H](c4ccc(C)c(F)c4F)NN3)=C2OC)nn1` [US20240109930, Example 1.1.10.], the IC50 on Galectin-1 was 4370 nM; on Galectin-3, 60 nM.
